Series [1] can be described thus: Pharmacokinetic test on male SD rats. It counts as in vivo. Particulars: gavage (p.o.), 10 mg/kg, plasma; for AUC(0-inf) / AUC(0-t) / Cmax / MRT last / Tmax: rat, po. The method, then: Healthy adult SD rats, male, a total of 3, 6-8 weeks old; Weighing 200-300 grams.
EDTA-Na2 anticoagulant: 11.2 g of EDTA-Na2 was weighted and placed into a reagent bottle. 100 mL of physiological saline was added and the mixture was shaken until completely dissolved. After preparation, the solution was aliquoted into 1.5 mL centrifuge tubes, each containing approximately 20 uL, for use in whole blood sample collection.
Approximately 10 mg of the test sample was accurately weighed. DMSO accounting for 10% of the total volume was added to dissolve the sample. Subsequently, 0.5% MC solvent accounting for 90% of the total volume was slowly added while stirring. The mixture was sonicated and vortexed evenly, and a visually homogeneous preparation solution was obtained, with a concentration of 1 mg/mL. This solution should be freshly prepared immediately before use.
0.2 mL of the sample was pipetted into a 1.5 mL centrifuge tube and stored at -80°C for concentration analysis of the dosing solution.
Animals were kept in rat cages and fasted for no less than 10 hours on the day before the experiment, but were allowed to drink water. The animals were individually weighed and marked on their tails. Prior to dosing, blank blood samples were collected from each animal via the tail vein.
• Administration route: gavage (p.o.) • Dosage concentration: 1mg/ml • Dosage: 10 mg/kg • Dosage volume: 10 mL/kg
Operation process: The rat was grasped with a left hand protected by a bite-resistant glove and held in an upright position. The gavage needle was inserted through the mouth and advanced towards the pharynx. The needle was advanced gently, ensuring no significant resistance was felt. The drug was then injected into the stomach.
At 0.5 h, 1 h, 2 h, 4 h, 6 h, 8 h, 12 h, and 24 h post-dosing, 0.1-0.2 mL of whole blood was collected from each test animal into EDTA-Na2 anticoagulant tubes. The tubes were mixed by inverting 3-4 times. The samples were centrifuged at 2000 × g and 4 °C for 5 minutes. The upper plasma layer was to separated, promptly transferred to -80 °C for storage until analysis. The blood was collected via tail vein.
A quantitative detection method for the test compound was established using a Shimadzu liquid chromatography system and a Triple Quad™ 6500+ AB mass spectrometry (MS) system. This method was used to analyze the concentration of the parent drug in plasma. The variation of the analysis results was controlled using quality control (QC) samples, and the accuracy of the QC samples was required to be within the range of 80%-120%.
The main pharmacokinetic parameters were calculated using the non-compartmental model (NCA) with the WinNonlin Phoenix software. These parameters include: area under the concentration-time curve (AUC(0-t) and AUC(0-∞)), elimination half-life (T1/2), maximum plasma concentration (Cmax), and time to reach maximum plasma concentration (Tmax), etc.

Series [2] addresses EGFR in BAF3-DTC (Baf3-19del-T780M-C797S) (Homo sapiens, UniProt P00533, C797S/DEL746-750/T790M). Nature of the series: EGFR PROTAC HTRF experiment (total EGFR degradation). Particulars: BAF3-DTC cells, 16 hours incubation. It counts as cell-based.
The subject of series [3] is PC-9. As to the kind of experiment: Cell antiproliferative assay (CTG, 72 h). Format: cell-based. The settings on record: Homo sapiens, PC-9 (EGFR exon 19 deletion). The method, then: (§1) H1975 has EGFR T790M/L858R dual mutation, PC-9 has EGFR exon 19 deletion mutation, and HCC827 has exon 19 deletion mutation. CellCounting Lite 2.0, Trypsin EDTA, 37 °C CO2 incubator, cell counter, EnVision Serial No.1050454.
(§2) • (A) Trypsin EDTA was used to digest log-phase cells, medium was added to terminate the digestion reaction, and a cell suspension was prepared by blowing and mixing with a pipette. • (B) Cell concentration was determined using Vi-cell, and a suspension of 15,000-25,000 cells per milliliter was made depending on the purpose of the experiment and the characteristics of the cells. • (C) After the cell suspension was ready, it was gently mixed and each well was added with 100µL so that the cell density to be tested was 1,500- 2,500 per well.
(§3) • A) About 2 mg of compound was weighed, and the volume of DMSO required was calculated according to the formula: compound mass (mg)*compound purity (%)/compound molecular weight*1000. • (B) The inoculated cell culture plates were incubated in an incubator. About 24 hours later, compounds were added at gradient concentrations. • (C) 10mM of compound reservoir solution was diluted to […] with medium, and […] of the compound solution was added sequentially to the second column of the deep-well plate, and […] of medium containing 0.5% DMSO was added to the third to eleventh columns. • D) Gradient dilution: 125 µl of solution was pipetted from the second column and added to the third column, after mixing; another 125 µl of solution was pipetted from the third column and added to the fourth column, and the operation was repeated until the tenth column. • (E) 25 µl of compound was pipetted from the deep-well plate into a 96-well culture plate using a multichannel pipette, and each compound was run in triplicate on the 96-well plate. A 1:4 concentration gradient was established on the 96-well plate, with a final highest concentration of 10,000 nM.
(§4) • (A) 96-well plates were incubated in an incubator for 72 h. The effect of the compounds was observed under an inverted microscope. • (B) 25 µl of CTG solution was added to each well. The plate was incubated on a shaker for 10 minutes and the OD value of each well was read.
(§5) The survival rate ( % Cell Viability) was calculated using the following formula: %Cell Viability = 100% × (Lum_Sample−Lum_LC)/(Lum_HC−Lum_LC) [formula] • Lum_HC: Cell reading of 0.1% DMSO control group • Lum_Sample: Cell readings of compound addition group • Lum_LC: Reading of blank medium • IC50 values were obtained by curve fitting using GraphPad Prism 8 software.

Series [4] relates to H1975. As to the kind of experiment: Cell antiproliferative assay (CTG, 72 h). Format: cell-based. Particulars: Homo sapiens, NCI-H1975, H1975 (EGFR T790M/L858R). As to the method: as §1, §2, §3, §4, §5
Series [5] has as its system HCC827. As to the kind of experiment: Cell antiproliferative assay (CTG, 72 h). Format: cell-based. The settings on record: Homo sapiens, HCC827 (exon 19 deletion). As to the method: as §1, §2, §3, §4, §5
Series [6] addresses EGFR in BAF3-LTC (Baf3-L858R-T780M-C797S) (Homo sapiens, UniProt P00533, C797S/L858R/T790M). Nature of the series: EGFR PROTAC HTRF experiment (total EGFR degradation). It counts as cell-based. Particulars: BAF3-LTC cells, 16 hours incubation.

8 molecules from EP4714948A1, “COMPOUND USED FOR EGFR PROTEIN DEGRADATION, AND USE THEREOF” (TYK Medicines, Inc., priority 2023, dated 2024) can be followed below.

pIC50: −log10 of the molar value.

A word on the AUC(0-inf): it is the area under the concentration-time curve extrapolated to infinity. The AUC(0-t) is the area under the concentration-time curve up to a stated or last time point. Higher therefore signals high exposure. The term Cmax denotes the maximum level reached in the sampled fluid or tissue. A word on the MRT last: it is a mean duration of stay, worked out from the concentration-time curve. The Tmax is the time at which the peak concentration occurs. For orientation: DC50 means the concentration at which degradation of the target reaches its halfway point. The term Dmax denotes the greatest extent of degradation seen. As a reminder, the pIC50 is the negative decadic logarithm of the IC50, by convention in mol/L. A low value points to a large IC50.

Chain of EGFR in BAF3-DTC (Baf3-19del-T780M-C797S) (P00533 with tags, fused parts or gaps DEL746-750/T790M/C797S): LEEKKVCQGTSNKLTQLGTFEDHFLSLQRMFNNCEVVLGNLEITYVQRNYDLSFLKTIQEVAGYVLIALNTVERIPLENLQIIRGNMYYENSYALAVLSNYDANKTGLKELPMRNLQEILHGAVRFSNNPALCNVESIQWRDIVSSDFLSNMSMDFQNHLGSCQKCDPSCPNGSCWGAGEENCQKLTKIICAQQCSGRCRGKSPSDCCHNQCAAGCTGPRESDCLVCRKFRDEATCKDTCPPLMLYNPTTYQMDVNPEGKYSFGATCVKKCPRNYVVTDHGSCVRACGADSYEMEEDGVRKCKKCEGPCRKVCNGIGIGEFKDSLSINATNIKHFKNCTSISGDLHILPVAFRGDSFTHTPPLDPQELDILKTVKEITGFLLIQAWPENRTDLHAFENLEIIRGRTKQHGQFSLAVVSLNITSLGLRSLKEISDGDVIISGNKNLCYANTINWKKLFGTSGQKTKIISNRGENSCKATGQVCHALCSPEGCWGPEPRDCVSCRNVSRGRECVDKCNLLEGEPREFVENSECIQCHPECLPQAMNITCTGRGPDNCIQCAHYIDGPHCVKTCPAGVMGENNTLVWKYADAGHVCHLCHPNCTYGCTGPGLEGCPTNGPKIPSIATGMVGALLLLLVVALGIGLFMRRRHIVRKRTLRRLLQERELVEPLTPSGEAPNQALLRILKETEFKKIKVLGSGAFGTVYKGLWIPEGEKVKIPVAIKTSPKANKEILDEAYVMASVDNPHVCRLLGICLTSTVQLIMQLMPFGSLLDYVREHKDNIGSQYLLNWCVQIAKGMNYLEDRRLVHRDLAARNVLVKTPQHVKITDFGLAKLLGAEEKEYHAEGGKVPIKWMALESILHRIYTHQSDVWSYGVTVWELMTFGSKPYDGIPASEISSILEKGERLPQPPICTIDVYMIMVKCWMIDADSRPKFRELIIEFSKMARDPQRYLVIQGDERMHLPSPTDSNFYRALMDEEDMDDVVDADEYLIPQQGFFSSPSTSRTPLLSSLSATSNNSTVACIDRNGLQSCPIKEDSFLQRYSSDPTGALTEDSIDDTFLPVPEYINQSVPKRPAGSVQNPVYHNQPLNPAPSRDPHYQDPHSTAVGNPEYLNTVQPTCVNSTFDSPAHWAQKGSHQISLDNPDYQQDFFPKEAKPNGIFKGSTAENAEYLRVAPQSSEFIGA
Chain of EGFR in BAF3-LTC (Baf3-L858R-T780M-C797S) (P00533 25-1210 T790M/C797S/L858R): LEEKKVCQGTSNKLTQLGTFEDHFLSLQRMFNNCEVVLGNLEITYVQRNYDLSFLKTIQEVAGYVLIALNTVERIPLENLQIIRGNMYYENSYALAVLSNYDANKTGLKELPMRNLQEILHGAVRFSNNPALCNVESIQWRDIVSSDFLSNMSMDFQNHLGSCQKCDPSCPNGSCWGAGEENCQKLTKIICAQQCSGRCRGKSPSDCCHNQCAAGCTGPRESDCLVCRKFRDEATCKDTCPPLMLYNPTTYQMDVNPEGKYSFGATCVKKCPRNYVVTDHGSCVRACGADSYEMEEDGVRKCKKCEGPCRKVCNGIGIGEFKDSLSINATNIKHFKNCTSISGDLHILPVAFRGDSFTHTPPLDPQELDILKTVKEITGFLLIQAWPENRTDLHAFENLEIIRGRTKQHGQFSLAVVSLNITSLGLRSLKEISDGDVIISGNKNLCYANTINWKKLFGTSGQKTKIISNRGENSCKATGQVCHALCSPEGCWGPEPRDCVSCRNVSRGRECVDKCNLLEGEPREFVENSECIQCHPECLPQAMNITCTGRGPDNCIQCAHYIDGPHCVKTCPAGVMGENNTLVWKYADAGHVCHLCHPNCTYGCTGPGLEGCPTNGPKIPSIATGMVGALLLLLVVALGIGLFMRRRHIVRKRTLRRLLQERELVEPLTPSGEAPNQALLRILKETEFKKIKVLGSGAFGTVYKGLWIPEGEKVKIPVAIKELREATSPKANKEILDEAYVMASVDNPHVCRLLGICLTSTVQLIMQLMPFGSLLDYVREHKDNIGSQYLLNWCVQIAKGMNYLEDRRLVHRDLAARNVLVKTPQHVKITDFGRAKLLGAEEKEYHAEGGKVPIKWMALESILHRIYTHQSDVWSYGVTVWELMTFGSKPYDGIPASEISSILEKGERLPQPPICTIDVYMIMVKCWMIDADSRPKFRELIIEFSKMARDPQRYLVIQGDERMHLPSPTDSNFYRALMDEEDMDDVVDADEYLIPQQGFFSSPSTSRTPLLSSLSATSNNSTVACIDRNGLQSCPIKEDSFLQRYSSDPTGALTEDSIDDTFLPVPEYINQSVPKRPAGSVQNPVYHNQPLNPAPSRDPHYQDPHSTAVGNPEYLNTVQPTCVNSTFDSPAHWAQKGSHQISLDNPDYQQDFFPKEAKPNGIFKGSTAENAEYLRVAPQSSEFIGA

Consider `CCc1cc(Nc2ncc(Cl)c(Nc3ccccc3C(=O)NC)n2)c(OC)cc1N1CCN(C(=O)CN2CCN(c3ccc(NC4CCC(=O)NC4=O)cc3F)CC2)CC1` (centres unmarked) [Compound T-029], for which, in series [1], the HL_ was 2.51 h, the AUC(0-inf) is 8210 ng·h/mL, the AUC(0-t) came to 7900 ng·h/mL and the highest concentration (Cmax) came out at 1010 ng/mL. Besides, in series [1], the MRT last was 5.65 h and the Tmax came out at 4.67 h. In addition, in series [2], the 50% degradation concentration (DC50) was 10 to 100 nM and the Dmax fell in the range of 50 to 70%. This molecule also gave a pIC50 in series [3] of 6.00 to 7.00. The same molecule showed a negative logarithm of the IC50 (pIC50) in series [4] of 7.00 to 8.00. The molecule also had a negative-log IC50 (pIC50) in series [5] of 6.00 to 7.00. In series [6], this molecule showed a 50% degradation concentration (DC50) of 100 to 1000 nM and a Dmax of 70 to 100%.
Regarding `CCc1cc(Nc2ncc(Cl)c(Nc3ccccc3C(=O)NC)n2)c(OC)cc1N1CC2(CN(C(=O)CN3CCC(c4ccc(NC5CCC(=O)NC5=O)cc4)CC3)C2)C1` (centres unmarked) [Compound T-080], the DC50 in series [2] and in series [6] was 10 to 100 nM each time. The Dmax in series [2] and in series [6] was 70 to 100% throughout. Also, the figures for the negative-log IC50 (pIC50) in series [3], in series [4] and in series [5] were 7.00 to 8.00, greater than 8.00 and 7.00 to 8.00, respectively.
Regarding `CCc1cc(Nc2ncc(Cl)c(Nc3ccccc3C(=O)NC)n2)c(OC)cc1N1CC2CCC(C1)N2C(=O)CN1CCC(c2ccc(NC3CCC(=O)NC3=O)cc2)CC1` (centres unmarked) [Compound T-109], the DC50 in series [2] and in series [6] was 10 to 100 nM each time. Moreover, the greatest degradation seen (Dmax) in series [2] and in series [6] was 50 to 70% throughout. Further, the negative logarithm of the IC50 (pIC50) in series [3], in series [4] and in series [5] was 7.00 to 8.00 throughout.
For `C=Cc1cc(Nc2ncc(Cl)c(Nc3ccccc3C(=O)NC)n2)c(OC)cc1N1CCN(C(=O)CN2CCC(c3ccc(NC4CCC(=O)NC4=O)cc3)CC2)CC1` (centres unmarked) [Compound T-003], the 50% degradation concentration (DC50) in series [2] and in series [6] was 10 to 100 nM throughout. In addition, the Dmax in series [2] and in series [6] was 70 to 100% throughout. The negative logarithm of the IC50 (pIC50) is 6.00 to 7.00 in series [3], 7.00 to 8.00 in series [4] and 7.00 to 8.00 in series [5].
In series [1], `CCc1cc(Nc2ncc(Cl)c(Nc3ccccc3C(=O)NC)n2)c(OC)cc1N1CCN(C(=O)CC2(O)CCN(c3ccc(NC4CCC(=O)NC4=O)cc3F)CC2)CC1` (centres unmarked) [Compound T-037] had an HL_ of 2.61 h, an AUC(0-inf) of 24400 ng·h/mL, an area under the curve AUC(0-t) of 24000 ng·h/mL and a maximum concentration (Cmax) of 2290 ng/mL. For the same molecule, in series [1], the mean residence time MRT last was found to be 7.49 h and the time to peak (Tmax) worked out at 2.67 h. Also, in series [2], the half-maximal degradation concentration (DC50) fell in the range of 100 to 1000 nM and the Dmax is 50 to 70%. Further, the negative-log IC50 (pIC50) in series [3] is 6.00 to 7.00. Besides, in series [4], the negative logarithm of the IC50 (pIC50) is 7.00 to 8.00. In series [5], this molecule had a pIC50 of 6.00 to 7.00. In series [6], this molecule showed a DC50 of 100 to 1000 nM and a maximal degradation (Dmax) of 50 to 70%.
Take `CNC(=O)c1ccccc1Nc1nc(Nc2cc(C)c(N3CCN(CCN4CCC(c5ccc(NC6CCC(=O)NC6=O)cc5)CC4)CC3)cc2OC)ncc1Cl` (centres unmarked) [Compound T-021]: the DC50 in series [2] and in series [6] was 100 to 1000 nM in each case. Besides, the maximal degradation (Dmax) in series [2] and in series [6] was 70 to 100% in each case. Besides, the negative-log IC50 (pIC50) is 6.00 to 7.00 in series [3], greater than 8.00 in series [4] and 7.00 to 8.00 in series [5].
Take `CCc1cc(Nc2ncc(Cl)c(Nc3ccccc3C(=O)NC)n2)c(OC)cc1N1CCN(C(=O)CN2CCC(c3ccc(NC4CCC(=O)NC4=O)cc3F)CC2)CC1` (centres unmarked) [Compound T-067]: in series [1], the HL_ is 4.39 h, the area under the curve AUC(0-inf) was 11300 ng·h/mL, the AUC(0-t) came out at 11000 ng·h/mL and the Cmax was 1020 ng/mL. In series [1], the MRT last turned out to be 7.78 h and the time to peak (Tmax) was 4 h. In series [2], this molecule displayed a half-maximal degradation concentration (DC50) of 10 to 100 nM and a Dmax of 70 to 100%. This molecule also showed a pIC50 in series [3] of 6.00 to 7.00. The molecule also had a pIC50 in series [4] greater than 8.00. In addition, the pIC50 in series [5] was 6.00 to 7.00. In series [6], the DC50 fell in the range of 10 to 100 nM and the Dmax is 70 to 100%.
In series [1], `CCc1cc(Nc2ncc(Cl)c(Nc3ccccc3C(=O)NC)n2)c(OC)cc1N1CCN(CCN2CCC(c3ccc(NC4CCC(=O)NC4=O)cc3)CC2)CC1` (centres unmarked) [Compound T-023] yielded an HL_ of 9.28 h, an AUC(0-inf) of 76300 ng·h/mL, an AUC(0-t) of 61600 ng·h/mL and a Cmax of 4060 ng/mL. In series [1], the MRT last turned out to be 10 h and the Tmax amounted to 6 h. In series [2], this molecule yielded a DC50 of 10 to 100 nM and a maximal degradation (Dmax) of 70 to 100%. In series [3], this molecule gave a pIC50 of 6.00 to 7.00. For the same molecule, in series [4], the negative logarithm of the IC50 (pIC50) is greater than 8.00. The molecule also had a negative logarithm of the IC50 (pIC50) in series [5] of 7.00 to 8.00. Moreover, in series [6], the 50% degradation concentration (DC50) lay in the range of 10 to 100 nM and the Dmax fell in the range of 70 to 100%.
